Consider 27 molecules from US20150232452A1, “NOVEL RAF KINASE INHIBITORS” (Ruga Corporation, priority 2012, published 2015).

The test system of test [1] is A375 cells (V600E activated B-RAF). Kind of test: In vitro assay for tumor cell growth (MTT, 72 hours incubation). The class given is cell-based. Particulars: Homo sapiens, A-375, 72 h, growth inhibition of A375 cells, unit inferred. As to the method:
In Vitro Assays for Tumor Cell Growth
Cell lines are obtained from the American Type Tissue Culture Collection (Maryland, USA) and cultured in media containing heat-inactivated 10% fetal bovine serum. Cell cultures are also maintained in 10 U/mL penicillin, 100 μg/mL streptomycin and 2 mM glutamine. At least triplicate determinations for each individual test compound concentration are made and data is plotted as mean±standard deviation relative to the control vehicle.

In test [2] the target is Braf V600E (recombinant V600E mutated B-RAF) (Homo sapiens, UniProt P15056, V600E). Kind of test: In vitro assay for determining inhibition of mutant B-RAF kinase. It is filed as biochemical. The conditions noted are these: 10 nM recombinant V600E mutated B-RAF, 1 μM MEK (K97R) as substrate. As to the method: In Vitro Assay for Determining Inhibition of B-RAF Kinase or Mutant B-RAF Kinase
Solutions of varying concentrations of test compounds or vehicle are added to 10 nM recombinant V600E mutated B-RAF proteins incubated in the presence of different concentrations of ATP and 1 μM MEK (K97R) as substrate, as previously described (Wilhelm, S. M., et al., Cancer Res., 64: 7099-7109, 2004; Mason, C. S., et al., EMBO J. 18: 2137-2148, 1999; Marais, R., et al., J. Biol. Chem., 272: 4378-4383, 1997). At least triplicate determinations for each individual test compound concentration are made and data is plotted as mean±standard deviation relative to the control vehicle.

Chain of Braf V600E (recombinant V600E mutated B-RAF) (P15056 whole entry V600E): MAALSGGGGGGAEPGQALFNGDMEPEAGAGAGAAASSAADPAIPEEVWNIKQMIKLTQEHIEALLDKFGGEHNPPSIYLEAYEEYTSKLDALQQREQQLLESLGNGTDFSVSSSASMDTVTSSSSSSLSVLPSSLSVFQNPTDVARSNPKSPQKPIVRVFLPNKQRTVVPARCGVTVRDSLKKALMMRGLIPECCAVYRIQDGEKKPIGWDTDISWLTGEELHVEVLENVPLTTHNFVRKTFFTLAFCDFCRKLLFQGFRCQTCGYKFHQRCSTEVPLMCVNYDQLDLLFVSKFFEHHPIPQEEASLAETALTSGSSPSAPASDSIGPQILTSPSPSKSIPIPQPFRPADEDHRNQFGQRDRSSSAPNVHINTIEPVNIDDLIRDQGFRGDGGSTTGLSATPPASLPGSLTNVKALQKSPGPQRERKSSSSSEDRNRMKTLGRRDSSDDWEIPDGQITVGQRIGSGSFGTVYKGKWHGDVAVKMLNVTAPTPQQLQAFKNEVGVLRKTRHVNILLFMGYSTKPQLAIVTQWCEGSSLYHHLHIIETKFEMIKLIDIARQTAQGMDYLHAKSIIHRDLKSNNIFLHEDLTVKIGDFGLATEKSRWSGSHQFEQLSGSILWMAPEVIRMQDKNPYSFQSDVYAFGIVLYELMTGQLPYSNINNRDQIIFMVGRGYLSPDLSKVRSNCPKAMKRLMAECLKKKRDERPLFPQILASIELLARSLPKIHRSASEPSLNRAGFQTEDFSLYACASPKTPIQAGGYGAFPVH

In the case of `CCn1cc(-c2cccc(NC(=O)Nc3ccc(Cl)c(C(F)(F)F)c3)c2)c(-c2ccncc2)n1` [Example 9, 1-(4-chloro-3-(trifluoromethyl)phenyl)-3-(3-(1-ethyl-3-(pyridin-4-yl)-1H-pyrazol-4-yl)phenyl)urea], the IC50 in test [1] was 1.78 µM; in test [2] it was 0.00301 µM.

As for `CCn1cc(-c2cccc(NC(=O)Nc3cccc(I)c3)c2)c(-c2ccncc2)n1` [Example 20, 1-(3-(1-ethyl-3-(pyridin-4-yl)-1H-pyrazol-4-yl)phenyl)-3-(3-iodophenyl)urea], in test [1], the IC50 turned out to be 2.08 µM.

With `CCn1cc(-c2cccc(NC(=O)Nc3ccc(C)cc3)c2)c(-c2ccncc2)n1` [Example 5, 1-(3-(1-ethyl-3-(pyridin-4-yl)-1H-pyrazol-4-yl)phenyl)-3-(p-tolyl)urea], the IC50 came out at 0.815 µM in test [1] and 0.00161 µM in test [2].

With `CCn1cc(-c2cccc(NC(=O)Nc3ccc(C(F)(F)F)cc3)c2)c(-c2ccnc(N)n2)n1` [Example 28, 1-(3-(3-(2-aminopyrimidin-4-yl)-1-ethyl-1H-pyrazol-4-yl)phenyl)-3-(4-(trifluoromethyl)phenyl)urea], the results for the IC50 in test [1] and in test [2] were 0.362 µM and 0.0035 µM, respectively.

Consider `CCn1cc(-c2cccc(NC(=O)Nc3ccccc3Cl)c2)c(-c2ccncc2)n1` [Example 13, 1-(2-chlorophenyl)-3-(3-(1-ethyl-3-(pyridin-4-yl)-1H-pyrazol-4-yl)phenyl)urea], for which the IC50 in test [2] amounted to 0.0587 µM.

On to `CCn1cc(-c2cccc(NC(=O)Nc3cccc(C(F)(F)F)c3)c2)c(-c2ccncc2)n1` [Example 7, 1-(3-(1-ethyl-3-(pyridin-4-yl)-1H-pyrazol-4-yl)phenyl)-3-(3-(trifluoromethyl)phenyl)urea], for which the IC50 turned out to be 1.75 µM in test [1] and 0.00444 µM in test [2].

Take `CCn1cc(-c2cccc(NC(=O)Nc3cccc(C)c3)c2)c(-c2ccncc2)n1` [Example 11, 1-(3-(1-ethyl-3-(pyridin-4-yl)-1H-pyrazol-4-yl)phenyl)-3-(m-tolyl)urea]: the IC50 in test [1] was found to be 3.47 µM; in test [2], 0.00498 µM.

Regarding `CCn1cc(-c2cccc(NC(=O)Nc3ccc(C(C)(C)C)cc3)c2)c(-c2ccncc2)n1` [Example 4, 1-(4-(tert-butyl)phenyl)-3-(3-(1-ethyl-3-(pyridin-4-yl)-1H-pyrazol-4-yl)phenyl)urea], the IC50 amounted to 0.506 µM in test [1] and 0.00653 µM in test [2].

For the molecule `CCn1cc(-c2cccc(NC(=O)Nc3ccc(F)c(C(F)(F)F)c3)c2)c(-c2ccncc2)n1` [Example 8, 1-(3-(1-ethyl-3-(pyridin-4-yl)-1H-pyrazol-4-yl)phenyl)-3-(4-fluoro-3-(trifluoromethyl)phenyl)urea], the IC50 came out at 2.54 µM in test [1] and 0.00431 µM in test [2].

Turning to `CCn1cc(-c2cccc(NC(=O)Nc3ccc(Br)cc3)c2)c(-c2ccncc2)n1` [Example 21, 1-(4-bromophenyl)-3-(3-(1-ethyl-3-(pyridin-4-yl)-1H-pyrazol-4-yl)phenyl)urea], the IC50 in test [1] came out at 0.085 µM.

With `CC(C)(C)n1cc(-c2cccc(NC(=O)Nc3ccc(C(F)(F)F)cc3)c2)c(-c2ccncc2)n1` [Example 25, 1-(3-(1-(tert-butyl)-3-(pyridin-4-yl)-1H-pyrazol-4-yl)phenyl)-3-(4-(trifluoromethyl)phenyl)urea], the IC50 in test [2] amounted to 1.6 µM.

Regarding `CCn1cc(-c2cccc(NC(=O)Nc3ccccc3F)c2)c(-c2ccncc2)n1` [Example 15, 1-(3-(1-ethyl-3-(pyridin-4-yl)-1H-pyrazol-4-yl)phenyl)-3-(2-fluorophenyl)urea], the IC50 in test [2] turned out to be 0.0538 µM.

For the molecule `CCn1cc(-c2cccc(NC(=O)Nc3ccc(Br)c(F)c3)c2)c(-c2ccncc2)n1` [Example 22, 1-(4-bromo-3-fluorophenyl)-3-(3-(1-ethyl-3-(pyridin-4-yl)-1H-pyrazol-4-yl)phenyl)urea], in test [1], the IC50 is 0.083 µM.

`CC(C)n1cc(-c2cccc(NC(=O)Nc3ccc(I)c(F)c3)c2)c(-c2ccncc2)n1` [Example 24, 1-(3-fluoro-4-iodophenyl)-3-(3-(1-isopropyl-3-(pyridin-4-yl)-1H-pyrazol-4-yl)phenyl)urea]: the half-maximal inhibitory concentration (IC50) in test [1] was 0.233 µM.

As for `CCn1cc(-c2cccc(NC(=O)Nc3ccc(C(C)C)cc3)c2)c(-c2ccncc2)n1` [Example 6, 1-(3-(1-ethyl-3-(pyridin-4-yl)-1H-pyrazol-4-yl)phenyl)-3-(4-isopropylphenyl)urea], the results for the IC50 in test [1] and in test [2] were 0.449 µM and 0.00118 µM, respectively.

As for `CCn1cc(-c2cccc(NC(=O)Nc3ccc(Cl)cc3)c2)c(-c2ccncc2)n1` [Example 16, 1-(4-chlorophenyl)-3-(3-(1-ethyl-3-(pyridin-4-yl)-1H-pyrazol-4-yl)phenyl)urea], the IC50 in test [1] was found to be 0.272 µM; in test [2], 0.00231 µM.

The molecule `CCn1cc(-c2cccc(NC(=O)Nc3ccc(I)c(F)c3)c2)c(-c2ccncc2)n1` [Example 19, 1-(3-(1-ethyl-3-(pyridin-4-yl)-1H-pyrazol-4-yl)phenyl)-3-(3-fluoro-4-iodophenyl)urea] yielded an IC50 in test [1] of 0.042 µM.

Consider `CCn1cc(-c2cccc(NC(=O)Nc3ccc(C(F)(F)F)cc3)c2)c(-c2ccncc2)n1` [Example 3, 1-(3-(1-ethyl-3-(pyridin-4-yl)-1H-pyrazol-4-yl)phenyl)-3-(4-(trifluoromethyl)phenyl)urea], for which the IC50 in test [1] came to 0.202 µM; in test [2], 0.00072 µM.

`CCn1cc(-c2cccc(NC(=O)Nc3ccc(I)cc3F)c2)c(-c2ccncc2)n1` [Example 17, 1-(3-(1-ethyl-3-(pyridin-4-yl)-1H-pyrazol-4-yl)phenyl)-3-(2-fluoro-4-iodophenyl)urea] had an IC50 in test [1] of 0.166 µM.

`CCn1cc(-c2cccc(NC(=O)Nc3cccc(F)c3)c2)c(-c2ccncc2)n1` [Example 14, 1-(3-(1-ethyl-3-(pyridin-4-yl)-1H-pyrazol-4-yl)phenyl)-3-(3-fluorophenyl)urea]: the IC50 in test [2] is 0.0393 µM.

On to `CC(C)n1cc(-c2cccc(NC(=O)Nc3ccc(C(F)(F)F)cc3)c2)c(-c2ccncc2)n1` [Example 23, 1-(3-(1-isopropyl-3-(pyridin-4-yl)-1H-pyrazol-4-yl)phenyl)-3-(4-(trifluoromethyl)phenyl)urea], for which the IC50 in test [1] amounted to 1.73 µM; in test [2], 0.006 µM.

Take `CCn1cc(-c2cccc(NC(=O)Nc3ccc(Br)c(F)c3)c2)c(-c2ccnc(N)n2)n1` [Example 27, 1-(3-(3-(2-aminopyrimidin-4-yl)-1-ethyl-1H-pyrazol-4-yl)phenyl)-3-(4-bromo-3-fluorophenyl)urea]: in test [1], the midpoint of inhibition, the IC50, lay at 0.571 µM.

Take `CC(C)(C)c1nc(-c2ccnc(N)n2)c(-c2cccc(NC(=O)Nc3ccc(C(F)(F)F)cc3)c2F)s1` [Example 2, 1-(3-(4-(2-aminopyrimidin-4-yl)-2-(tert-butyl)thiazol-5-yl)-2-fluorophenyl)-3-(4-(trifluoromethyl)phenyl)urea]: the IC50 in test [1] is greater than 10 µM; in test [2] it was 3.98 µM.

Turning to `CCn1cc(-c2cccc(NC(=O)Nc3ccc(Cl)cc3Cl)c2)c(-c2ccncc2)n1` [Example 12, 1-(2,4-dichlorophenyl)-3-(3-(1-ethyl-3-(pyridin-4-yl)-1H-pyrazol-4-yl)phenyl)urea], the IC50 stood at 1.37 µM in test [1] and 0.00639 µM in test [2].

In the case of `CCn1cc(-c2cccc(NC(=O)Nc3ccc(I)cc3)c2)c(-c2ccncc2)n1` [Example 10, 1-(3-(1-ethyl-3-(pyridin-4-yl)-1H-pyrazol-4-yl)phenyl)-3-(4-iodophenyl)urea], the IC50 in test [1] was 0.049 µM; in test [2] it was 0.0022 µM.

`CC(C)(C)c1nc(-c2ccnc(N)n2)c(-c2cccc(NC(=O)Nc3ccc(C(F)(F)F)cc3)c2)s1` [Example 1, 1-(3-(4-(2-aminopyrimidin-4-yl)-2-(tert-butyl)thiazol-5-yl)phenyl)-3-(4-(trifluoromethyl)phenyl)urea]: the IC50 in test [1] was greater than 10 µM; in test [2], 0.225 µM.

`CCn1cc(-c2cccc(NC(=O)Nc3ccc(Br)cc3F)c2)c(-c2ccncc2)n1` [Example 18, 1-(4-bromo-2-fluorophenyl)-3-(3-(1-ethyl-3-(pyridin-4-yl)-1H-pyrazol-4-yl)phenyl) urea] showed an IC50 in test [1] of 0.541 µM.

As usually defined, the IC50 is the midpoint of a concentration-inhibition curve.
